From ChEMBL document CHEMBL1201862, “PubChem BioAssay data set” (2004)
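Values below derive from 48-hour exposures of cells grown in 96-well plates, with endpoints linearly interpolated between the two concentrations bracketing the appropriate inhibition level. GI50 marks 50% less growth.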 Calls of active or inactive are those of the source. Rule as the data show it: active = GI50 up to about 1.1 µM and inactive = higher.

Key:
Assay in all cases: inhibition of tumour cell growth, NCI panel, 48 h
A549 = test system: A549
ACHN = test system: ACHN
CAKI-1 = test system: CAKI-1
CCRF-CEM = test system: CCRF-CEM
COLO 205 = test system: COLO 205
DU-145 = test system: DU-145
EKVX = test system: EKVX
HCT-15 = test system: HCT-15
HOP-62 = test system: HOP-62
K562 = test system: K562
MCF7 = test system: MCF7
MDA-MB-435 = test system: MDA-MB-435
NCI-H460 = test system: NCI-H460
NCI-H522 = test system: NCI-H522
OVCAR-8 = test system: OVCAR-8
PC-3 = test system: PC-3
RPMI-8226 = test system: RPMI-8226
SF-539 = test system: SF-539
SN12C = test system: SN12C
UO-31 = test system: UO-31

Row | SMILES | GI50 (A549) | GI50 (ACHN) | GI50 (CAKI-1) | GI50 (CCRF-CEM) | GI50 (COLO 205) | GI50 (DU-145) | GI50 (EKVX) | GI50 (HCT-15) | GI50 (HOP-62) | GI50 (K562) | GI50 (MCF7) | GI50 (MDA-MB-435) | GI50 (NCI-H460) | GI50 (NCI-H522) | GI50 (OVCAR-8) | GI50 (PC-3) | GI50 (RPMI-8226) | GI50 (SF-539) | GI50 (SN12C) | GI50 (UO-31)
1 | C[n+]1cc2cc(O)c(O)cc2c2ccc3cc(O)c(O)cc3c21.c1ccncc1 | 4.05 µM (inactive) | 2.69 µM (inactive) | 3.05 µM (inactive) | 1.17 µM (inactive) | 10.3 µM (inactive) | 3.57 µM (inactive) | 3.37 µM (inactive) | 2.47 µM | 2.12 µM (inactive) | 1.71 µM (inactive) | 2.09 µM (inactive) | 2.46 µM (inactive) | 2.86 µM (inactive) | 0.617 µM (active) | 3.1 µM (inactive) | 3.37 µM (inactive) | 5.4 µM (inactive) | 2.62 µM (inactive) | 2.96 µM (inactive) | 0.982 µM (active)
2 | CC(=O)OCC(OC(C)=O)C(OC(C)=O)C(OC(C)=O)C(/C=N\Nc1nc2ccccc2c(=O)[nH]1)OC(C)=O (stereo not given) | > 100 µM (inactive) | > 100 µM (inactive) | > 100 µM (inactive) | > 100 µM (inactive) | > 100 µM (inactive) | > 100 µM (inactive) | 54.7 µM (inactive) | > 100 µM | > 100 µM (inactive) | > 100 µM (inactive) | > 100 µM (inactive) | > 100 µM (inactive) | > 100 µM (inactive) | > 100 µM (inactive) | > 100 µM (inactive) | > 100 µM (inactive) | > 100 µM (inactive) | > 100 µM (inactive) | > 100 µM (inactive) | > 100 µM (inactive)
3 | CCOC(=O)C1=C(C)NC(=S)NC1c1cccc(O)c1 (stereo not given) [MONASTROL] | 52.1 µM (inactive) | 85.3 µM (inactive) | 63.8 µM (inactive) | 34.7 µM (inactive) | 31.6 µM (inactive) | 76.6 µM (inactive) | 62.7 µM (inactive) | 39.4 µM | 68.1 µM (inactive) | 32.7 µM (inactive) | 30 µM (inactive) | 17.2 µM (inactive) | 39.8 µM (inactive) | 30.3 µM (inactive) | 57.7 µM (inactive) | 36.1 µM (inactive) | 31 µM (inactive) | 44.8 µM (inactive) | 35.5 µM (inactive) | > 100 µM (inactive)
